In US20250206714A1, “COMPOSITIONS AND METHODS FOR TREATMENT OF INFLAMMATORY DISEASES” (Invea Therapeutics, Inc., priority 2022, published 2025):

Tests used:
[1] = Metabolic stability assay in human liver microsomes in the presence of specific cytochrome P450 inhibitors (arm without inhibitor, summary statements); details: for % rem @ 5 min / % rem @ 15 min / % rem @ 30 min / % rem @ 45 min: 1 μM, no inhibitor
CYP 2C9 = target: T1, CYP 2C9 (Homo sapiens, UniProt P11712); assay: Metabolic stability in human liver microsomes with CYP 2C9 inhibitor Sulfaphenazole; format: in vitro ADME; details: 1 μM + Sulfaphenazole (20 μM)
T1 construct: The experiment was conducted in human liver microsomes; from tissue; host or cells: human liver microsomes

MDR1 (P-gp) = assay: in vitro; parameters: Papp A→B at 60 min / Papp B→A at 60 min / efflux ratio at 60 min / recovery at 60 min / % recovery Apical concentration-Basal concentration / % recovery Basal concentration-Apical concentration: dose or concentration left out as unconfirmed; details: dog; for efflux ratio at 60 min: MDCK-MDR1
Experimental: (§1) Digoxin is used as reference and lucifer yellow is used as the integrity marker. […] Papp, efflux ratio and percent recovery are calculated.

MDR1 = assay: in vitro; parameters: Papp A→B at 60 min / Papp B→A at 60 min / efflux ratio at 60 min / recovery at 60 min / % recovery Apical concentration-Basal concentration / % recovery Basal concentration-Apical concentration: dose or concentration left out as unconfirmed; details: dog, MDCK-MDR1
Experimental: as §1

IL-1β = assay: LPS+ATP-induced model of inflammasome activation, plasma IL-1β by ELISA; format: in vivo, Balb/c mice; details: 20 mg/kg, Intraperitoneal; mice plasma
Experimental: The procedures detailed here can be utilized for testing all compounds of the disclosure. The example utilizes LPS+ATP-induced model of inflammasome activation in 8-10 weeks old male Balb/c mice for in vivo testing.
8-10 weeks old male Balb/c mice were challenged by intraperitoneal (i.p.) injection of 200 μg/Kg (0.2 μg/g) LPS at t=0 hr, followed by i.p. injection of 5 mM solution of ATP at t=2 hr (2 h after LPS challenge). The compound of disclosure being tested for inhibitory activity (such as Compound 6) was administered both via intraperitoneal and oral route at −1 hr. Different doses of the compound of the disclosure were given to the mice […] as shown below.
MCC950, a specific small molecule inhibitor of NLRP3 inflammasome was used as a positive control to enable comparison of inhibitory activity of the compounds of the disclosure along with a known inhibitor. 2.5 hours after the LPS priming (or 0.5 hours after ATP administration), blood was collected via retro-orbital bleeding in heparinized blood collection tubes. Blood was centrifuged for 5 minutes at 10,000 rpm in a refrigerated centrifuge to obtain plasma. Separated plasma was used for cytokine assessment by ELISA. The standard curve (OD VS concentration) for IL-1β was also plotted and used to determine the IL-1β concentration for the OD values. The percentage of inhibition of IL-1β was calculated using the formula: […]

CYP 3A4 = CYP 3A4 (Homo sapiens, UniProt P08684); assay: Metabolic stability in human liver microsomes with CYP 3A4 inhibitor Ketoconazole; details: 1 μM + Ketoconazole (20 μM)
CYP 2C19 = target: T2, CYP 2C19 (Homo sapiens, UniProt P33261); assay: Metabolic stability in human liver microsomes with CYP 2C19 inhibitor Nootkatone; format: in vitro ADME; details: 1 μM + Nootkatone (20 μM)
T2 construct: The experiment was conducted in human liver microsomes; from tissue; host or cells: human liver microsomes

CYP 1A2 = target: T3, CYP 1A2 (Homo sapiens, UniProt P05177); assay: Metabolic stability in human liver microsomes with CYP 1A2 inhibitor Furafylline; format: in vitro ADME; details: 1 μM + Furafylline (20 μM)
T3 construct: The experiment was conducted in human liver microsomes; from tissue; host or cells: human liver microsomes
T3 sequence (P05177 1-516): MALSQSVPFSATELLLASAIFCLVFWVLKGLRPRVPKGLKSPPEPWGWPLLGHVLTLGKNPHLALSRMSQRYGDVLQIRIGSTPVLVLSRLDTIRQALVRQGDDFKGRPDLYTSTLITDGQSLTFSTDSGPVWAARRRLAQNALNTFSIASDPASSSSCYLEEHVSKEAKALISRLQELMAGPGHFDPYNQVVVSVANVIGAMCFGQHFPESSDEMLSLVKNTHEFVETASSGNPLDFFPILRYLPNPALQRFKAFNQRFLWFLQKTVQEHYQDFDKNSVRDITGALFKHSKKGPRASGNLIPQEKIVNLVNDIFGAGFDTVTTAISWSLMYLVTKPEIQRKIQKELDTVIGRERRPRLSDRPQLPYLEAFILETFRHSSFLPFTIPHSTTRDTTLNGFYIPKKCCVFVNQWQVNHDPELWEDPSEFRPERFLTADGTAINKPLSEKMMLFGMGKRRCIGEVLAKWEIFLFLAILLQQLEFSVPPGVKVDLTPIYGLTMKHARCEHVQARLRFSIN

[2] = tested on: MDR1 transfected Madin-Darby canine kidney (MDCK) cell monolayer; assay: Permeability assay (MDR1-MDCK); parameters: Papp A→B at 60 min / Papp B→A at 60 min / efflux ratio at 60 min / recovery at 60 min / % recovery Apical concentration-Basal concentration / % recovery Basal concentration-Apical concentration: dose or concentration left out as unconfirmed; details: Permeability (MDR1-MDCK) @
Experimental: as §1

[3] = MDCK-MDR1, % recovery Apical concentration-Basal concentration
[4] = MDCK-MDR1, % recovery Basal concentration-Apical concentration
[5] = human, human liver microsomes, pH 7.4

Sequence of CYP 3A4 (P08684 whole entry): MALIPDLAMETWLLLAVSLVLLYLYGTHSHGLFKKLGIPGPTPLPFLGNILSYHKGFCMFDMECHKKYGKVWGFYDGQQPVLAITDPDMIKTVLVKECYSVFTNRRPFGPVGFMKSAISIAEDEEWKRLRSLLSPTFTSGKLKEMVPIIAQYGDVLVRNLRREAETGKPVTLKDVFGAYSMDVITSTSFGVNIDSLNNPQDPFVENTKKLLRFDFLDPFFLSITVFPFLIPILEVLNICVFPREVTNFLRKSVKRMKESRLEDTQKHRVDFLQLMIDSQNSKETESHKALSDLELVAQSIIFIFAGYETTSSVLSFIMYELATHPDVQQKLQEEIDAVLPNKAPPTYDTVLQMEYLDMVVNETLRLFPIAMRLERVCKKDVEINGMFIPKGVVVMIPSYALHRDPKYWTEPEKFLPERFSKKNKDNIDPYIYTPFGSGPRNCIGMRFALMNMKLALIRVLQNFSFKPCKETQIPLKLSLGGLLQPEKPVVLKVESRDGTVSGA
T2 sequence (P33261 whole entry): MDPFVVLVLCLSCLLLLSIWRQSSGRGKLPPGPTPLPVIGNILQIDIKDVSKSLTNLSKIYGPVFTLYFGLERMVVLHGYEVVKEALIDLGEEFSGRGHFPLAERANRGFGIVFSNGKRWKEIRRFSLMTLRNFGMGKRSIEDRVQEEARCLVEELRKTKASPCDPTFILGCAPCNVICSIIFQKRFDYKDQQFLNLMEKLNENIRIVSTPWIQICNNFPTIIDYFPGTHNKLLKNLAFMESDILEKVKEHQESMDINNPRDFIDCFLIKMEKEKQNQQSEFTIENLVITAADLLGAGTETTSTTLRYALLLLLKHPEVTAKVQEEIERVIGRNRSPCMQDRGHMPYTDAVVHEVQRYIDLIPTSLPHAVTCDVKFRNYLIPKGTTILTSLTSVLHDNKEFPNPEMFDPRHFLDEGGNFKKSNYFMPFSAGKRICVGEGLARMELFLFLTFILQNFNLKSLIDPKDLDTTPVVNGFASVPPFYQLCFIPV
T1 sequence (P11712 whole entry): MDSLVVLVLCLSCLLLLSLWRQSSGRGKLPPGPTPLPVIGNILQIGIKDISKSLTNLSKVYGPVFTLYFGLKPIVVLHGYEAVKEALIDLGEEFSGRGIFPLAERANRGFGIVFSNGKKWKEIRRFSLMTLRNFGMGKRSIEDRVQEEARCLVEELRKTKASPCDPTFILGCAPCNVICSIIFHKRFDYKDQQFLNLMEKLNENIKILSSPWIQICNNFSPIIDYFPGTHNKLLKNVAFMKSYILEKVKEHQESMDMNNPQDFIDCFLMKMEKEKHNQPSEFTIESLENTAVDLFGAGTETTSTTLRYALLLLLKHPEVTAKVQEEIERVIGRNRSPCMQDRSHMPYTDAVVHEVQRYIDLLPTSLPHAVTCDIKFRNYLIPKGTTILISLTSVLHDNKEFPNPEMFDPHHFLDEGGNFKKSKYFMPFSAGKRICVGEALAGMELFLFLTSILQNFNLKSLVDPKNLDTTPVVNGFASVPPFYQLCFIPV

Question: With O=C(O)Cc1ccccc1Nc1c(Cl)cccc1Cl [Diclofenac, reference compound] as the molecule, how does the “% rem @ 5 min” value ([1]; human liver microsomes) read?
Answer: 49.5%

Question: And the “% rem @ 15 min” value ([1]; human liver microsomes)?
Answer: 28.3%

Question: And the “% rem @ 30 min” value ([1]; human liver microsomes)?
Answer: 10.5%

Question: And the “% rem @ 45 min” value ([1]; human liver microsomes)?
Answer: 4.93%

Question: And the “% rem @ 5 min” value (CYP 2C9)?
Answer: ~100%

Question: And the “% rem @ 15 min” value (CYP 2C9)?
Answer: ~100%

Question: What about the “% rem @ 30 min” value (CYP 2C9) of the same molecule?
Answer: 91.9%

Question: And the “% rem @ 45 min” value (CYP 2C9)?
Answer: 82.0%

Question: And the half-life at 1 µM (CYP 2C9; pH 7.4, with Sulfaphenazole 20 μM)?
Answer: 131 min

Question: What about the microsomal CLint at 1 μM (CYP 2C9; pH 7.4, with Sulfaphenazole 20 μM, read-out: mCLint) of the same molecule?
Answer: 10.6 µL/min/mg

Question: With C[C@H]1O[C@@H](O[C@H]2[C@@H](O)C[C@H](O[C@H]3[C@@H](O)C[C@H](O[C@H]4CC[C@@]5(C)[C@H](CC[C@@H]6[C@@H]5C[C@@H](O)[C@]5(C)[C@@H](C7=CC(=O)OC7)CC[C@]65O)C4)O[C@@H]3C)O[C@@H]2C)C[C@H](O)[C@@H]1O [Digoxin] as the molecule, how does the efflux ratio at 60 min (MDR1 (P-gp)) read?
Answer: 54.3

Question: What about the recovery at 60 min (MDR1 (P-gp); [3]) of the same molecule?
Answer: 99.9%

Question: What about the recovery at 60 min (MDR1 (P-gp); [4]) of the same molecule?
Answer: ~100%

Question: What about the Papp A→B at 60 min (MDR1) of the same molecule?
Answer: 0.28 ×10⁻⁶ cm/s

Question: What about the Papp B→A at 60 min (MDR1) of the same molecule?
Answer: 15.2 ×10⁻⁶ cm/s

Question: With CC(C)(O)c1coc(S(=O)(=O)NC(=O)Nc2c3c(cc4c2CCC4)CCC3)c1 [MCC950, reference compound] as the molecule, how does the “% IL-1 β inhibition” value (IL-1β) read?
Answer: 95%

Question: Which results are given for Cc1ncc2n1-c1ccc(Cl)cc1C(c1ccccc1F)=NC2 [Midazolam]?
Answer: % rem @ 5 min ([1]; human liver microsomes): 22.0%; % rem @ 15 min ([1]; human liver microsomes): 2.77%; % rem @ 30 min ([1]; human liver microsomes): <1%; % rem @ 45 min ([1]; human liver microsomes): <1%; half-life at 1 µM ([1]; human, microsomes, pH 7.4): 5.21 min; % rem @ 5 min (CYP 3A4): 96.7%; % rem @ 15 min (CYP 3A4): 97.1%; % rem @ 30 min (CYP 3A4): ~100%; % rem @ 45 min (CYP 3A4): ~100%

Question: Which “% rem @ 5 min” value ([1]; human liver microsomes) does the source give for COc1ccc2[nH]c([S+]([O-])Cc3ncc(C)c(OC)c3C)nc2c1 (centres unmarked) [Omeprazole, reference compound] here?
Answer: 95.9%

Question: And the “% rem @ 15 min” value ([1]; human liver microsomes)?
Answer: 71.1%

Question: What about the “% rem @ 30 min” value ([1]; human liver microsomes) of the same molecule?
Answer: 60.1%

Question: What about the “% rem @ 45 min” value ([1]; human liver microsomes) of the same molecule?
Answer: 28.8%

Question: And the half-life at 1 µM [1, 5]?
Answer: 26.4 min

Question: And the microsomal CLint at 1 μM [1, 5]?
Answer: 52.6 µL/min/mg

Question: And the “% rem @ 5 min” value (CYP 2C19)?
Answer: 94.8%

Question: And the “% rem @ 15 min” value (CYP 2C19)?
Answer: 92.7%

Question: What about the “% rem @ 30 min” value (CYP 2C19) of the same molecule?
Answer: 85.0%

Question: And the “% rem @ 45 min” value (CYP 2C19)?
Answer: 55.6%

Question: What about the half-life at 1 µM (CYP 2C19; pH 7.4, with Nootkatone 20 μM) of the same molecule?
Answer: 59.3 min

Question: And the microsomal CLint at 1 μM (CYP 2C19; pH 7.4, with Nootkatone 20 μM, read-out: mCLint)?
Answer: 23.4 µL/min/mg

Question: For CCOc1ccc(NC(C)=O)cc1 [Phenacetin, reference compound], which “% rem @ 5 min” value (CYP 1A2) is on record?
Answer: ~100%

Question: And the “% rem @ 15 min” value (CYP 1A2)?
Answer: ~100%

Question: What about the “% rem @ 30 min” value (CYP 1A2) of the same molecule?
Answer: ~100%

Question: And the “% rem @ 45 min” value (CYP 1A2)?
Answer: 71.9%

Question: What about the half-life at 1 µM (CYP 1A2; pH 7.4, with Furafylline 20 μM) of the same molecule?
Answer: 102 min

Question: What about the microsomal CLint at 1 μM (CYP 1A2; pH 7.4, with Furafylline 20 μM, read-out: mCLint) of the same molecule?
Answer: 13.6 µL/min/mg

Question: What does the source list for CC(C)NCC(O)COc1cccc2ccccc12 (centres unmarked) [Propranolol]?
Answer: efflux ratio at 60 min (MDR1 (P-gp)): 1.01; recovery at 60 min (MDR1 (P-gp); [3]): 71.5%; recovery at 60 min (MDR1 (P-gp); [4]): ~100%; Papp A→B at 60 min (MDR1): 47.5 ×10⁻⁶ cm/s; Papp B→A at 60 min (MDR1): 48.2 ×10⁻⁶ cm/s

Question: For Lucifer yellow, which “% recovery Apical concentration-Basal concentration” value [2] is on record?
Answer: 97.2%

Question: What about the “% recovery Basal concentration-Apical concentration” value [2] of the same molecule?
Answer: 97.1%
